Residues, ends and D or L forms follow the SMILES beside them.
How the values were obtained:
[1] = tested on: Agrobacterium tumefaciens; assay: Inhibition zone assay (agar plate); assay type: cell-based; settings: agar plate, 50 nanomoles/well, 3 mm wells
[2] = tested on: Escherichia coli (ATCC11775); assay: Inhibition zone assay (agar plate); assay type: cell-based; settings: agar plate, 50 nanomoles/well, 3 mm wells
Salmonella typhimurium = assay: Inhibition zone assay (agar plate); assay type: cell-based; settings: agar plate, 50 nanomoles/well, 3 mm wells
Morganella morganii = assay: Inhibition zone assay (agar plate); assay type: cell-based; settings: 50 nanomoles/well, 3 mm wells
E. coli 11775 = assay: Minimal inhibitory concentration (liquid culture); settings: for minimal inhibitory concentration (MIC): a-b = highest concentration with growth - lowest without growth
Y. enterocolitica = assay: Minimal inhibitory concentration (liquid culture); settings: inoculum 5000 CFU/ml; a-b = highest concentration with growth - lowest without growth
Erwinia amylovora = assay: Inhibition zone assay (agar plate); assay type: cell-based; settings: agar plate, 50 nanomoles/well, 3 mm wells
[3] = tested on: Acinetobacter calcoaceticus; assay: Inhibition zone assay (agar plate); assay type: cell-based; settings: agar plate, 50 nanomoles/well, 3 mm wells
Rhizobium meliloti = assay: Inhibition zone assay (agar plate); assay type: cell-based; settings: 50 nanomoles/well, 3 mm wells
Escherichia coli (K514) = assay type: cell-based; settings: agar plate, 50 nanomoles/well, 3 mm wells
A. calcoaceticus = assay: Minimal inhibitory concentration (liquid culture); settings: inoculum 16 × 10^6 CFU/ml; a-b = highest concentration with growth - lowest without growth
E. coli Apid^R = assay: Minimal inhibitory concentration (liquid culture); assay type: cell-based; settings: a-b = highest concentration with growth - lowest without growth
Description: For details see `Experimental Procedures`.

Klebsiella pneumoniae = assay: Inhibition zone assay (agar plate); assay type: cell-based; settings: agar plate, 50 nanomoles/well, 3 mm wells
E. coli 23802 = assay: Minimal inhibitory concentration (liquid culture); settings: inoculum 5000 CFU/ml; a-b = highest concentration with growth - lowest without growth
E. coli 25922 = assay: Minimal inhibitory concentration (liquid culture); settings: inoculum 1100 CFU/ml; a-b = highest concentration with growth - lowest without growth
Shigella dysenteriae = assay type: cell-based; settings: agar plate, 50 nanomoles/well, 3 mm wells
Haemophilus influenzae = assay: Inhibition zone assay (agar plate); assay type: cell-based; settings: 50 nanomoles/well, 3 mm wells
S. typhimurium = assay: Minimal inhibitory concentration (liquid culture); settings: inoculum 8 × 10^6 CFU/ml; a-b = highest concentration with growth - lowest without growth
Legionella pneumophila = assay type: cell-based; settings: agar plate, 50 nanomoles/well, 3 mm wells
Pseudomonas syringae = assay: Inhibition zone assay (agar plate); assay type: cell-based; settings: agar plate, 50 nanomoles/well, 3 mm wells
Campylobacter jejuni = assay: Inhibition zone assay (agar plate); assay type: cell-based; settings: 50 nanomoles/well, 3 mm wells
M. morganii = assay: Minimal inhibitory concentration (liquid culture); settings: inoculum 400 CFU/ml; a-b = highest concentration with growth - lowest without growth
Enterobacter cloacae = assay: Inhibition zone assay (agar plate); assay type: cell-based; settings: agar plate, 50 nanomoles/well, 3 mm wells
[4] = tested on: Escherichia coli (11775 Apid R); assay type: cell-based; settings: agar plate, 50 nanomoles/well, 3 mm wells
Salmonella typhi = assay type: cell-based; settings: agar plate, 50 nanomoles/well, 3 mm wells

Compound	inhibition zone diameter (number of plus signs) [1]	inhibition zone diameter (number of plus signs) [2]	inhibition zone diameter (number of plus signs) (Salmonella typhimurium)	inhibition zone diameter (number of plus signs) (Morganella morganii)	minimal inhibitory concentration (MIC) (E. coli 11775; inoculum 16 × 10^6 CFU/ml) [µg/mL]	minimal inhibitory concentration (MIC) (E. coli 11775; inoculum 1200 CFU/ml) [µg/mL]	minimal inhibitory concentration (MIC) (Y. enterocolitica) [µg/mL]	inhibition zone diameter (number of plus signs) (Erwinia amylovora)	inhibition zone diameter (number of plus signs) [3]	inhibition zone diameter (number of plus signs) (Rhizobium meliloti)	inhibition zone diameter (number of plus signs) (Escherichia coli (K514))	minimal inhibitory concentration (MIC) (A. calcoaceticus) [µg/mL]	minimal inhibitory concentration (MIC) (E. coli Apid^R; inoculum 1000 CFU/ml) [µg/mL]	inhibition zone diameter (number of plus signs) (Klebsiella pneumoniae)	minimal inhibitory concentration (MIC) (E. coli 23802) [µg/mL]	minimal inhibitory concentration (MIC) (E. coli 25922) [µg/mL]	inhibition zone diameter (number of plus signs) (Haemophilus influenzae)	minimal inhibitory concentration (MIC) (S. typhimurium) [µg/mL]	inhibition zone diameter (number of plus signs) (Legionella pneumophila)	inhibition zone diameter (number of plus signs) (Pseudomonas syringae)	also measured
CC[C@H](C)[C@H](NC(=O)[C@@H]1CCCN1C(=O)[C@H](C)NC(=O)[C@@H]1CCCN1C(=O)[C@H](CCCNC(=N)N)NC(=O)[C@@H]1CCCN1C(=O)[C@H](CCCCN)NC(=O)[C@@H](N)CO)C(=O)N[C@@H](CCCCN)C(=O)N1CCC[C@H]1C(=O)N[C@@H](CCCNC(=N)N)C(=O)N1CCC[C@H]1C(=O)N1CCC[C@H]1C(=O)N[C@@H](Cc1c[nH]cn1)C(=O)N1CCC[C@H]1C(=O)N[C@@H](CCCNC(=N)N)C(=O)N[C@@H](CC(C)C)C(=O)O [Cd 3-, Ser--Lys--Pro--Arg--Pro--Ala--Pro--Ile--Lys--Pro--Arg--Pro--Pro--His--Pro--Arg--Leu] (H-SKPRPAPIKPRPPHPRL-OH)	++ ((++) 7-9 mm)	++ ((++) 7-9 mm)	++ ((++) 7-9 mm)	++ ((++) 7-9 mm)	0.5 to 1	0.1 to 0.5	20 to 40	+ ((+) 5-6 mm)	+ ((+) 5-6 mm)	++++ ((++++) 15-19 mm)	+ ((+) 5-6 mm)	10 to 20	5 to 10	++ ((++) 7-9 mm)	5 to 10	0.5 to 1	+++ ((+++) 10-14 mm)	1 to 5	++ ((++) 7-9 mm)	++ ((++) 7-9 mm)	minimal inhibitory concentration (MIC) (E. coli Apid^R; inoculum 12 × 10^6 CFU/ml): 5 to 10 µg/mL; inhibition zone diameter (number of plus signs) (Shigella dysenteriae): ++ ((++) 7-9 mm); inhibition zone diameter (number of plus signs) (Campylobacter jejuni): ++++ ((++++) 15-19 mm); minimal inhibitory concentration (MIC) (M. morganii): 1 to 5 µg/mL; inhibition zone diameter (number of plus signs) (Enterobacter cloacae): +++ ((+++) 10-14 mm); inhibition zone diameter (number of plus signs) [4]: ++ ((++) 7-9 mm)
CC[C@H](C)[C@H](NC(=O)[C@@H]1CCCN1C(=O)[C@H](C)NC(=O)[C@@H]1CCCN1C(=O)[C@H](CCCNC(=N)N)NC(=O)[C@@H]1CCCN1C(=O)[C@H](CCCCN)NC(=O)[C@H](CO)NC(=O)[C@@H]1CCCN1C(=O)[C@H](CCCCN)NC(=O)CN)C(=O)N[C@@H](CCCCN)C(=O)N1CCC[C@H]1C(=O)N[C@@H](CCCNC(=N)N)C(=O)N1CCC[C@H]1C(=O)N1CCC[C@H]1C(=O)N[C@@H](Cc1c[nH]cn1)C(=O)N1CCC[C@H]1C(=O)N[C@@H](CCCNC(=N)N)C(=O)N[C@@H](CC(C)C)C(=O)O [Cd 3+, Gly--Lys--Pro--Ser--Lys--Pro--Arg--Pro--Ala--Pro--Ile--Lys--Pro--Arg--Pro--Pro--His--Pro--Arg--Leu] (H-GKPSKPRPAPIKPRPPHPRL-OH)	+++ ((+++) 10-14 mm)	++ ((++) 7-9 mm)	++ ((++) 7-9 mm)	++ ((++) 7-9 mm)	0.1 to 0.5	0.1 to 0.5	10 to 20	+ ((+) 5-6 mm)	+ ((+) 5-6 mm)	+++ ((+++) 10-14 mm)	+ ((+) 5-6 mm)	10 to 20	0.5 to 1	++ ((++) 7-9 mm)	0.1 to 0.5	0.1 to 0.5	++++ ((++++) 15-19 mm)	0.1 to 0.5	++ ((++) 7-9 mm)	++ ((++) 7-9 mm)	inoculum effect on inhibition of viability (E. coli 11775; inoculum sizes differing by four orders of magnitude): equally well; inhibition zone diameter (number of plus signs) (Salmonella typhi): ++ ((++) 7-9 mm); minimal inhibitory concentration (MIC) (E. coli Apid^R; inoculum 12 × 10^6 CFU/ml): 0.5 to 1.5 µg/mL; minimal inhibitory concentration (MIC) (E. coli Apid^R; inoculum 12 × 10^6 CFU/ml, listed as Cd3+): measurable activities; inhibition zone diameter (number of plus signs) (Campylobacter jejuni): +++++ ((+++++) 20 or more min); minimal inhibitory concentration (MIC) (M. morganii): 1 to 5 µg/mL; inhibition zone diameter (number of plus signs) (Enterobacter cloacae): +++ ((+++) 10-14 mm); inhibition zone diameter (number of plus signs) [4]: ++ ((++) 7-9 mm)
CC[C@H](C)[C@H](NC(=O)[C@@H]1CCCN1C(=O)[C@H](C)NC(=O)[C@@H]1CCCN1C(=O)[C@H](CCCNC(=N)N)NC(=O)[C@@H]1CCCN1C(=O)[C@H](CCCCN)NC(=O)[C@@H](N)CC(N)=O)C(=O)N[C@@H](CCCCN)C(=O)N1CCC[C@H]1C(=O)N[C@@H](CCCNC(=N)N)C(=O)N1CCC[C@H]1C(=O)N1CCC[C@H]1C(=O)N[C@@H](Cc1c[nH]cn1)C(=O)N1CCC[C@H]1C(=O)N[C@@H](CCCNC(=N)N)C(=O)N[C@@H](CC(C)C)C(=O)O [Cd 2-, Asn--Lys--Pro--Arg--Pro--Ala--Pro--Ile--Lys--Pro--Arg--Pro--Pro--His--Pro--Arg--Leu] (H-NKPRPAPIKPRPPHPRL-OH)	++++ ((++++) 15-19 mm)	+++ ((+++) 10-14 mm)	+ ((+) 5-6 mm)	++ ((++) 7-9 mm)	0.5 to 1	0.5 to 1	> 40	+++ ((+++) 10-14 mm)	+ ((+) 5-6 mm)	+++ ((+++) 10-14 mm)	++ ((++) 7-9 mm)	10 to 20	5 to 10	++ ((++) 7-9 mm)	10 to 20	0.5 to 1	++ ((++) 7-9 mm)	1 to 5	++ ((++) 7-9 mm)	+++ ((+++) 10-14 mm)	inhibition zone diameter (number of plus signs) (Salmonella typhi): + ((+) 5-6 mm); inhibition zone diameter (number of plus signs) (Shigella dysenteriae): ++ ((++) 7-9 mm); inhibition zone diameter (number of plus signs) (Campylobacter jejuni): +++ ((+++) 10-14 mm); minimal inhibitory concentration (MIC) (M. morganii): 1 to 5 µg/mL; inhibition zone diameter (number of plus signs) (Enterobacter cloacae): +++ ((+++) 10-14 mm); inhibition zone diameter (number of plus signs) [4]: ++ ((++) 7-9 mm)

Source: US5466671A, “Apidaecin-type peptide antibiotics with improved activities and/or different antibacterial spectrum” (priority 1994, dated 1995)
